{"source": "patent US5506213A", "about": "“Adminstration of 2'-halo-2'-deoxy adenosine to treat inflammatory bowel disease” (priority 1994, dated 1996)", "key": {"[1]": {"tested_on": "human fibroblast cell line GM01380", "experiment": "In vitro cytotoxicity toward human fibroblast cell line (MTT reduction assay)", "type": "cell-based", "settings": "20 nM CdA, five days", "procedure": "FIG. 2 is a graph illustrating the dose-response cytotoxicity of 2-chlorodeoxyadenosine (CdA) towards normal human monocytes (open squares), the human fibroblast cell line, GM01380, which is from normal fetal lung (open diamonds) and normal human lymphocytes (closed diamonds), when cultured in vitro. Cells were cultured in vitro as described in Example 2 for five days in the presence of varying concentrations of CdA from 0 to 125 nanomolar (nM), after which time viable cells were determined. The percentage of viable cells remaining after treatment (ordinate) is plotted against the concentration of CdA utilized (abscissa), on a linear scale. The effect of the presence of deoxycytidine (dCyd, 100 μM) on CdA toxicity toward monocytes (closed squares) is also illustrated. […]\nToxicity towards the monocytes and fibroblasts was determined by a modification of the MTT reduction assay described in Mosmann (1983) J. Immunol. […]\nViable cell numbers were determined using a Dynatech microplate spectrophotometer, measuring absorbance at a wavelength of 570 nanometers (nm), using a reference wavelength of 630 nm. The assay could detect as few as 2000 unactivated monocytes, and the absorbance of MTT formazan at 570 nm was linear with respect to the number of monocytes over a range of about 2.5-20×10^3 cells."}, "[2]": {"tested_on": "IL-6", "experiment": "Spontaneous IL-6 secretion by cultured monocytes, B9.9 hybridoma bioassay", "type": "cell-based, human", "procedure": "FIG. 6 is a graph that illustrates the effects of relatively low doses of CdA used to contact monocytes for a 72 hour time period. Monocyte release of interleukin-6 (IL-6; closed diamonds) and phagocytosis of antibody-coated red blood cells (RBC; closed squares) were examined, as was the viability of the cultured monocytes (open squares). Effects are expressed as a percentage of control values versus the CdA concentration in nanomoles (nM).\nThe ability of dialyzed culture supernatants to promote proliferation of B9.9 hybridoma cells is a measure of IL-6 activity (Helle et al. (1988) Eur. J. Immunol., 18:1535-1540). Monocytes spontaneously secrete IL-6 upon adherence to plastic during short-term in vitro culture (Guerne et al. (1989) J. Clin. Invest., 83:585-592). Monocytes cultured in autologous plasma 20 percent for three days secreted approximately 18 U per ml of IL-6, as determined by the bioassay standard curve using rIL-6.\nThe spontaneous secretion, of IL-6 by cultured monocytes was measured by the hybridoma growth factor bioassay as described by Guerne et al. (1989) J. Clin. Invest., 83:585-592. In this assay, the proliferation of a B9.9 murine hybridoma subclone is dependent on the presence of IL-6. […]"}, "[3]": {"tested_on": "antigen-induced arthritis", "experiment": "Antigen-induced arthritis in rabbits", "type": "in vivo", "settings": "CdA 1 mg/kg, tepoxalin 25 mg/kg, naproxen 5 mg/kg", "procedure": "Antigen-induced arthritis in rabbits is an animal model of rheumatoid arthritis. In this model, the rabbits are sensitized to an antigen such as ovalbumin or methylated bovine serum albumin in an adjuvant. Several weeks later, the same antigen is injected directly into the joints of the animal. […] Pettipher et al., Br. J. Exp. Path., 69:113-122 (1988).\nRabbits with antigen-induced arthritis were treated with CdA (1 mg/kg), tepoxalin (25 mg/kg) or naproxen (5 mg/kg)."}, "[4]": {"tested_on": "DHL9, Increased ribonucleotide reduction", "experiment": "Direct comparative cytotoxicity assay (Table II), DHL9 increased ribonucleotide reduction", "type": "cell-based, human", "settings": "Homo sapiens, 120 h, read-out: ID50: concentration that produced 50 percent reduction in all numbers after five days", "excerpt": "The two compounds, CdA and CAFdA, were also compared for in vitro activity against another group of human cell lines in a direct comparative assay.\n^1 Concentration that produced 50 percent reduction in all numbers\n^2 CEM cells are T lymphoblasts; DHL9 cells are lymphoblasts."}, "[5]": {"tested_on": "delayed-type hypersensitivity (DTH) reaction", "experiment": "Delayed-type hypersensitivity to ovalbumin in guinea pigs, different dosages of CdA", "type": "in vivo, guinea pig", "settings": "for swelling compared to control saline treated animals: 24 and 48 hours post-challenge, p<0.01", "procedure": "Delayed-type hypersensitivity (DTH) is a cell-mediated immune response that typically takes longer than 12 hours to develop. In the guinea pig, a DTH reaction to an antigen can be established by first immunizing the animal with the antigen in an adjuvant such as Freund's complete adjuvant. Subsequent intradermal injection of the antigen causes no change for at least 10 hours, after which there is a gradual increase in erythema and swelling in response to antigen injection. This response peaks about at about 24 hours after challenge, then gradually subsides.\nIn another study, the effects of different dosages of CdA on the DTH reaction were examined. Guinea pigs sensitized to ovalbumin were treated with saline (control), dexamethasone (5 mg/kg), and CdA at 1 mg/kg or 0.1 mg/kg. Three days after treatment, the animals were challenged with ovalbumin intradermally. The areas of the skin lesions were measured at 6, 24, and 48 hours after challenge."}, "[6]": {"tested_on": "intact human cells or cell extracts", "settings": "cited from earlier work"}}, "data": [{"smiles": "Nc1nc(Cl)nc2c1ncn2[C@H]1C[C@H](O)[C@@H](CO)O1", "note": "[CdA, 2-chloro-9,1'-beta-D-2'-deoxyribosyladenine]", "values": [{"measurement": "toxicity on the growth of fibroblast cells", "setting": "[1]", "value": "no appreciable toxicity"}, {"measurement": "supernatant IL-6", "setting": "[2]; cytotoxic concentrations of CdA", "value": "high levels of IL-6"}, {"measurement": "spontaneous secretion of IL-6 into the culture supernatant", "setting": "[2]; sub-toxic concentrations of CdA, three days", "value": "inhibited the spontaneous secretion of IL-6"}, {"measurement": "pathological examination of joints compared to untreated controls", "setting": "[3]", "value": "milder inflammatory response coupled with much less tissue damage"}, {"measurement": "IC50", "setting": "[4]", "value": 4, "unit": "µM"}, {"measurement": "numerical values of the areas of swelling relative to dexamethasone", "setting": "[5]; 0.1 and 1.0 mg/kg CdA, substantially the same", "value": "slightly less than the value obtained with dexamethasone"}, {"measurement": "swelling compared to control saline treated animals", "setting": "[5]; CdA 0.1 mg/kg", "value": "effective at inhibiting swelling"}, {"measurement": "swelling compared to control saline treated animals", "setting": "[5]; CdA 1 mg/kg", "value": "effective at inhibiting swelling"}, {"measurement": "phosphorylation", "setting": "[6]; T lymphocytes", "value": "phosphorylated efficiently"}, {"measurement": "catabolism", "setting": "[6]; intact human cells or cell extracts", "value": "not catabolized significantly"}]}]}
